Where two headings read alike, the source gives them in different places.

Common to all, as to format: biochemical
One assay has as its target glucose-1-phosphatase (Escherichia coli, UniProt P19926, D396N/Q163K/Y105D). As to conditions: 20 mM αGlc 1-P and 200 mM acceptor. Here is the method: FIG. 10: Acceptor substrates phosphorylated by glucose-1-phosphatase. […] Product yields were determined at conversions >90% except for N-acetyl D-glucosamine (GlcNAc) 38%, D-glucosamine (D-GlcN) 81%, D-xylose (D-Xyl) 69%, L-Arabinose (L-Ara) 86%, D-Xylitol (D-Xol) 89% and L-Fucose (L-Fuc) 75%, respectively. All acceptors are phosphorylated at the C1-OH position except for (*) D-glucosamine where the predominant product was phosphorylated at the C6-OH. Light grey bars indicate rS/rP ratio, while the dark grey bars indicate the product yield.
Product yields were determined at conversions >90% except for N-acetyl D-glucosamine (GlcNAc) 38%, D-glucosamine (D-GlcN) 81%, D-xylose (D-Xyl) 69%, L-Arabinose (L-Ara) 86%, D-Xylitol (D-Xol) 89% and L-Fucose (L-Fuc) 75%, respectively. All acceptors are phosphorylated at the C1-OH position except for (*) D-glucosamine where the predominant product was phosphorylated at the C6-OH. Light grey bars indicate rS/rP ratio, while the dark grey bars indicate the product yield.

Assay [1] deals with T1, αGlc 1-P phosphatase (Escherichia coli, UniProt P19926, D396N/Q163K/Y105D).
T1 construct: Strep-tag (N); made in house; host or cells: E. coli Origami B (DE3), cytoplasmic, pMS470_dsbC vector (DsbC co-expressed)
T1 sequence (P19926 other isoform, or with tags, fused parts or gaps Y105D/Q163K/D396N): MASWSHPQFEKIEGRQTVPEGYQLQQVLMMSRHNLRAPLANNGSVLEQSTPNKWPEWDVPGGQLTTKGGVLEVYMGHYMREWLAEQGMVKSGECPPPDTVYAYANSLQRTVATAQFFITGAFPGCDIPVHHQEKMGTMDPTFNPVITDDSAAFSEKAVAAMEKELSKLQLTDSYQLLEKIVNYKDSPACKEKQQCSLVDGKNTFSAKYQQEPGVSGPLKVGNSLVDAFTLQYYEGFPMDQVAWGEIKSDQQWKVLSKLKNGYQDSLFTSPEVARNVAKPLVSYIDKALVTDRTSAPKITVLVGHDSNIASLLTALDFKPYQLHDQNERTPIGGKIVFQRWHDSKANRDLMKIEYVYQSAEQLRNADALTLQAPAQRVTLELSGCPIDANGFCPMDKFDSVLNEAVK
As to conditions: for Fru 1-P kcat_app (formation) / Fru 6-P kcat_app (formation) / Glc 6-P kcat_app (formation) / Glc 1-P kcat_app (consumption) / Phosphate kcat_app (release): pH 7.0, 37° C. As for the experimental part: Fru 6-P was measured using an assay with mannitol 1-phosphate dehydrogenase (52). […] (1)
Fru (100, 200, 400 or 600 mM) or Glc (200 mM) was used as the acceptor substrate. […] Sampling was done to allow for determination of initial rates, but the full reaction time course was also recorded. Relevant kcat_app values for substrate consumption, phosphate release, and phosphoryl transfer were obtained from the corresponding V values using equation 2. Internal consistency of the data was always checked by mass balance. pH dependence of phosphoryl transfer. […] A 50 mM Mes buffer was used, except at pH ≤6.0 where 50 mM Mes and 20 mM sodium acetate were used, and at pH 8.0 where 50 mM Mes and 50 mM Tes were used. Buffer pH values were adjusted at 37° C. and controlled before and after recording each enzyme-catalyzed reaction. Sampling and analyses were as described above.
For data analysis by non-linear least-squares regression, SigmaPlot 2004 version 9.0 was used. Equation 3 describes a pH dependence where activity (expressed as logarithmic kcat_app) is constant at low pH and decreases above pKB. C is the pH-independent value of kcat_app at the optimum state of protonation, K is the proton dissociation constant and [H^+] is the proton concentration. log(kcat_app)=log(C/(1+K/[H^+])) (3) High Performance Anion Exchange Chromatography with Pulsed Amperometric Detection (HPAEC-PAD).
Selected samples were analyzed on a Dionex BioLC system (Dionex Corporation, Sunnyvale, USA) equipped with a CarboPac PA10 column (4×250 mm) and an Amino Trap guard column (4×50 mm) thermostated at 30° C. […] Elution was carried out at a flow rate of 0.9 mL/min with the following method: isocratic flow of 52 mM NaOH for 20 min, followed by a linear gradient from 100 mM NaOAc to 400 mM NaOAc, applied within 25 min in an isocratic background of 100 mM NaOH. The column was washed for 5 min with 52 mM NaOH.

The target in assay [2] is T1, αGlc 1-P phosphatase. Particulars: 20 mM substrate; for hydrolysis by αGlc 1-P phosphatase (in words): pyrophosphate and phytate at pH 7.0 and pH 4.5. As for the experimental part: Inorganic phosphate was determined colorimetrically at 850 nm (56).
Hydrolysis reactions were carried out at an initial substrate concentration of 20 mM. […] Samples were taken in 15 min intervals, heat-treated (99° C., 5 min), and centrifuged at 20,000 g for 5 min. The release of phosphate was measured, and the initial rate V (mM min^−1) was determined from the linear relationship between phosphate concentration and time. […] (2)
A series of phosphorylated sugars were tested as substrates for hydrolysis by phosphatase.

[3] abbreviates: 0.1 μM enzyme, 37° C., 50 mM Mes pH 7.0, n.d. = no activity above assay detection limit.
[4] abbreviates: 200 mM Glc acceptor, 20 mM αGlc 1-P.
The mark [5] stands for this setting: 200 mM Glc acceptor, 20 mM αGlc 1-P, pH 7.0.

Sequence of glucose-1-phosphatase (P19926 other isoform, or with tags, fused parts or gaps Y105D/Q163K/D396N): as above

`O=C[C@H](O)[C@@H](O)[C@H](O)[C@H](O)C(=O)O` [D-Glucuronic acid]: the “phosphorylation of acceptor by glucose-1-phosphatase (in words)” value at glucose-1-phosphatase is listed as “not phosphorylated”.

As for `N[C@H]1C(O)O[C@H](CO)[C@H](O)[C@@H]1O` (stereo partly drawn) [D-galactosamine], the “phosphorylation of acceptor by glucose-1-phosphatase (in words)” value at glucose-1-phosphatase is reported as “not phosphorylated”.

As for `O=C(COP(=O)(O)O)[C@@H](O)[C@H](O)[C@H](O)CO` [Fru 1-P, D-fructose 1-phosphate], the “Fru 1-P kcat_app (formation)” value on αGlc 1-P phosphatase [1] (Fru 100 mM, 20 mM αGlc 1-P) is 39 s⁻¹; at αGlc 1-P phosphatase [1] (Fru 200 mM, 20 mM αGlc 1-P), 88 s⁻¹; at αGlc 1-P phosphatase [1] (Fru 400 mM, 20 mM αGlc 1-P), 111^a s^−1; on αGlc 1-P phosphatase [1] (Fru 600 mM, 20 mM αGlc 1-P) it was 135 s⁻¹. Further, the “αGlc 1-P phosphatase kcat_app, hydrolysis” value at αGlc 1-P phosphatase [2] (setting [3]) turned out to be 22 s⁻¹.

Regarding `O=C(CO)[C@@H](O)[C@H](O)[C@H](O)COP(=O)(O)O` [Fru 6-P, D-fructose-6-phosphate], the “Fru 6-P kcat_app (formation)” value is given as 11^b s^−1 at αGlc 1-P phosphatase [1] (Fru 100 mM, 20 mM αGlc 1-P); 20^ s^−1 on αGlc 1-P phosphatase [1] (Fru 200 mM, 20 mM αGlc 1-P); 28^ s^−1 on αGlc 1-P phosphatase [1] (Fru 400 mM, 20 mM αGlc 1-P); 36^c s^−1 on αGlc 1-P phosphatase [1] (Fru 600 mM, 20 mM αGlc 1-P). Besides, at αGlc 1-P phosphatase [2] (setting [3]), the “αGlc 1-P phosphatase kcat_app, hydrolysis” value is recorded as 22^a s^−1.

In the case of `O=C[C@H](O)[C@@H](O)[C@H](O)[C@H](O)COP(=O)(O)O` [Glc 6-P, D-glucose-6-phosphate], the “kcat_app ratio for formation of Glc 6-P and phosphate” value at αGlc 1-P phosphatase [1] (setting [4]) stood at 8.5. Further, the “kcat_app for Glc 6-P synthesis” value at αGlc 1-P phosphatase [1] (setting [5]) was 34 s⁻¹. Besides, the “Glc 6-P kcat_app (formation)” value at αGlc 1-P phosphatase [1] (Fru 100 mM, 20 mM αGlc 1-P) was 5 s⁻¹; on αGlc 1-P phosphatase [1] (Fru 200 mM, 20 mM αGlc 1-P), 6 s⁻¹; at αGlc 1-P phosphatase [1] (Fru 400 mM, 20 mM αGlc 1-P) it was 4 s⁻¹; at αGlc 1-P phosphatase [1] (Fru 600 mM, 20 mM αGlc 1-P), 5 s⁻¹. Besides, the “αGlc 1-P phosphatase kcat_app, hydrolysis” value at αGlc 1-P phosphatase [2] (setting [3]) came out at 56 s⁻¹.

For `O=P(O)(O)O[C@H]1[C@H](OP(=O)(O)O)[C@@H](OP(=O)(O)O)[C@H](OP(=O)(O)O)[C@@H](OP(=O)(O)O)[C@H]1OP(=O)(O)O` [Phytate, myo-inositol hexakisphosphate], the “hydrolysis by αGlc 1-P phosphatase (in words)” value on αGlc 1-P phosphatase [2] is given as “weakly active”. At αGlc 1-P phosphatase [2] (reactions at pH 7.0 and pH 4.5 (50 mM sodium acetate), phytate active only at pH 4.5, n.d. = no activity above detection limit), the “αGlc 1-P phosphatase kcat_app, hydrolysis” value came out at 2.1 s⁻¹.

In the case of `O=P(O)(O)OP(=O)(O)O` [Pyrophosphate], the “hydrolysis by αGlc 1-P phosphatase (in words)” value at αGlc 1-P phosphatase [2] is recorded as “not hydrolyzed”.

For `O=P(O)(O)O[C@H]1O[C@H](CO)[C@@H](O)[C@H](O)[C@H]1O` [αGlc 1-P, alpha-glucose-1-phosphate], at αGlc 1-P phosphatase [1] (200 mM Fru, 20 mM α-Glc 1-P), the “enhancement of α-Glc 1-P consumption rate compared to control without Fru” value is on record as “about 3 fold”. The “kcat_app for α-Glc 1-P consumption” value at αGlc 1-P phosphatase [1] (setting [5]) amounted to 40 s⁻¹. For the same compound, the “Glc 1-P kcat_app (consumption)” value on αGlc 1-P phosphatase [1] (Fru 0 mM, 20 mM αGlc 1-P) was 40 s⁻¹; at αGlc 1-P phosphatase [1] (Fru 100 mM, 20 mM αGlc 1-P) it was 73 s⁻¹; on αGlc 1-P phosphatase [1] (Fru 200 mM, 20 mM αGlc 1-P) it was 137 s⁻¹; at αGlc 1-P phosphatase [1] (Fru 400 mM, 20 mM αGlc 1-P) it was 162 s⁻¹; on αGlc 1-P phosphatase [1] (Fru 600 mM, 20 mM αGlc 1-P) it was 189 s⁻¹. The “increase of kcat_app (α-Glc 1-P) in hyperbolic dependence of the Fru concentration” value at αGlc 1-P phosphatase [1] (Fru 100-600 mM) is given as “about 5 fold”. For the same compound, the “αGlc 1-P phosphatase kcat_app, hydrolysis” value at αGlc 1-P phosphatase [2] (setting [3]) came out at 40 s⁻¹.

With `O=P(O)(O)O[C@@H]1O[C@H](CO)[C@@H](O)[C@H](O)[C@H]1O` [βGlc 1-P], at αGlc 1-P phosphatase [2], the “hydrolysis by αGlc 1-P phosphatase (in words)” value was “completely inactive”.

As for phosphate, the “decrease of phosphate release rate compared to control without Fru” value on αGlc 1-P phosphatase [1] (200 mM Fru, 20 mM α-Glc 1-P) is recorded as “about 2 fold”. In addition, the “suppression of phosphate release rate compared to control reaction lacking Glc” value at αGlc 1-P phosphatase [1] (setting [4]) is “about 10 fold”. Besides, the “kcat_app of phosphate formation” value at αGlc 1-P phosphatase [1] (setting [5]) came out at 4 s⁻¹. The “Phosphate kcat_app (release)” value on αGlc 1-P phosphatase [1] (Fru 0 mM, 20 mM αGlc 1-P) turned out to be 40 s⁻¹; at αGlc 1-P phosphatase [1] (Fru 100 mM, 20 mM αGlc 1-P), 21 s⁻¹; on αGlc 1-P phosphatase [1] (Fru 200 mM, 20 mM αGlc 1-P), 18 s⁻¹; on αGlc 1-P phosphatase [1] (Fru 400 mM, 20 mM αGlc 1-P), 14 s⁻¹; on αGlc 1-P phosphatase [1] (Fru 600 mM, 20 mM αGlc 1-P) it was 13 s⁻¹.

Source of the values: patent US10533201B2, “Enzymatic transphosphorylation of sugar substrates” (priority 2014, dated 2020).
